Patent US7524504B1, “Anti-glycation hydrolysate of G. lucidum” (priority 2008, dated 2009)

Tested on: AGE-related proteins
Experiment: Inhibition of AGE-related proteins (HSA + glucose incubation, fluorescence)
Assay type: biochemical, human
Conditions: 7 days of incubation
Procedure: Inhibition of AGE-related proteins was assayed according to the following method. First, a reaction mixture was prepared by mixing 20 mg/ml of human serum albumin (HSA) in 200 mM phosphate buffer (pH 7.4) with 500 mM [90.08 mg/ml] of glucose and 0.02% [0.2 mg/ml] sodium azide (as a preservative). The reaction mixture was incubated at 37° C. for three weeks, during which time AGE-related proteins were produced via a Maillard-type reaction. After 7, 14 and 21 days, aliquots of the reaction mixture were passed through a molecular weight sieve (PD-10 column) and equilibrated in water to remove free glucose and Schiff base. […] The latter reaction generates fluorescent by-products with fluorescence proportional to the amount of accumulated AGE-related proteins as determined with a microplate fluorescence reader (Bio-Tek FL600) at an excitation wavelength of 360 nm and an emission wavelength of 440 nm.
To aliquots of the initial reaction mixture capable of producing AGE-related endproducts as described above were added varying concentrations of extract of G. lucidum according to the present invention (i.e., hydrolyzed with acid protease of R. miehei and thereafter rendered substantially devoid of acid protease activity). […] Fluorescence was measured after 7 days of incubation in the reaction mixture as set out above.

N=C(N)NN [aminoguanidine, Aminoguanidine]
Fluorescence (at 440 nm), normalized to 100 (100 mM + Positive Control): 73
Fluorescence (at 440 nm), normalized to 100 (200 mM + Positive Control): 45
